ChEMBL document CHEMBL1671626, “In vitro profiling of ceftaroline against a collection of recent bacterial clinical isolates from across the United States” (2008)
In brackets after ≈: the same amount, converted by molar mass.

Legend:
Type in all cases: functional
Escherichia coli [1] = test: Antibacterial activity against ceftazidime-susceptible Escherichia coli by CLSI M7-A7 broth microdilution method
Serratia marcescens [2] = test: Antibacterial activity against ceftazidime-susceptible Serratia marcescens assessed as resistant isolates by CLSI M7-A7 broth microdilution method
Citrobacter freundii [3] = test: Antibacterial activity against ceftazidime-susceptible Citrobacter freundii by CLSI M7-A7 broth microdilution method
Enterobacteriaceae [4] = test: Antibacterial activity against ceftazidime-susceptible Enterobacteriaceae assessed as susceptible isolates by CLSI M7-A7 broth microdilution method
Klebsiella pneumoniae [5] = test: Antibacterial activity against ceftazidime-susceptible Klebsiella pneumoniae by CLSI M7-A7 broth microdilution method
Haemophilus influenzae [6] = test: Antibacterial activity against beta lactamase-negative Haemophilus influenzae assessed as resistant isolates by CLSI M7-A7 broth microdilution method
Proteus mirabilis [7] = test: Antibacterial activity against ceftazidime-susceptible Proteus mirabilis assessed as resistant isolates by CLSI M7-A7 broth microdilution method
Enterobacteriaceae [8] = test: Antibacterial activity against ceftazidime-nonsusceptible Enterobacteriaceae assessed as resistant isolates by CLSI M7-A7 broth microdilution method
Escherichia coli [9] = test: Antibacterial activity against ceftazidime-nonsusceptible Escherichia coli assessed as susceptible isolates by CLSI M7-A7 broth microdilution method
Morganella morganii [10] = test: Antibacterial activity against ceftazidime-susceptible Morganella morganii assessed as susceptible isolates by CLSI M7-A7 broth microdilution method
Klebsiella pneumoniae [11] = test: Antibacterial activity against ceftazidime-susceptible Klebsiella pneumoniae assessed as susceptible isolates by CLSI M7-A7 broth microdilution method
Enterobacter cloacae [12] = test: Antibacterial activity against ceftazidime-susceptible Enterobacter cloacae assessed as resistant isolates by CLSI M7-A7 broth microdilution method
Enterobacteriaceae [13] = test: Antibacterial activity against ceftazidime-nonsusceptible Enterobacteriaceae by CLSI M7-A7 broth microdilution method
Acinetobacter [14] = test: Antibacterial activity against imipenem-susceptible Acinetobacter by CLSI M7-A7 broth microdilution method
Haemophilus influenzae [15] = test: Antibacterial activity against beta lactamase-negative Haemophilus influenzae by CLSI M7-A7 broth microdilution method
Klebsiella pneumoniae [16] = test: Antibacterial activity against ceftazidime-nonsusceptible Klebsiella pneumoniae assessed as susceptible isolates by CLSI M7-A7 broth microdilution method
Escherichia coli [17] = test: Antibacterial activity against ceftazidime-susceptible Escherichia coli assessed as resistant isolates by CLSI M7-A7 broth microdilution method
Klebsiella pneumoniae [18] = test: Antibacterial activity against ceftazidime-nonsusceptible Klebsiella pneumoniae by CLSI M7-A7 broth microdilution method
Providencia sp. [19] = test: Antibacterial activity against ceftazidime-susceptible Providencia sp. by CLSI M7-A7 broth microdilution method
Enterobacteriaceae [20] = test: Antibacterial activity against ceftazidime-susceptible Enterobacteriaceae assessed as resistant isolates by CLSI M7-A7 broth microdilution method
Haemophilus influenzae [21] = test: Antibacterial activity against beta lactamase-positive Haemophilus influenzae assessed as susceptible isolates by CLSI M7-A7 broth microdilution method
Citrobacter freundii [22] = test: Antibacterial activity against ceftazidime-nonsusceptible Citrobacter freundii assessed as susceptible isolates by CLSI M7-A7 broth microdilution method
Enterobacter cloacae [23] = test: Antibacterial activity against ceftazidime-nonsusceptible Enterobacter cloacae by CLSI M7-A7 broth microdilution method
Providencia sp. [24] = test: Antibacterial activity against ceftazidime-susceptible Providencia sp. assessed as susceptible isolates by CLSI M7-A7 broth microdilution method
Klebsiella pneumoniae [25] = test: Antibacterial activity against ceftazidime-susceptible Klebsiella pneumoniae assessed as resistant isolates by CLSI M7-A7 broth microdilution method
Enterobacter cloacae [26] = test: Antibacterial activity against ceftazidime-susceptible Enterobacter cloacae by CLSI M7-A7 broth microdilution method
Citrobacter freundii [27] = test: Antibacterial activity against ceftazidime-susceptible Citrobacter freundii assessed as susceptible isolates by CLSI M7-A7 broth microdilution method
Enterobacter cloacae [28] = test: Antibacterial activity against ceftazidime-nonsusceptible Enterobacter cloacae assessed as susceptible isolates by CLSI M7-A7 broth microdilution method
Escherichia coli [29] = test: Antibacterial activity against ceftazidime-susceptible Escherichia coli assessed as susceptible isolates by CLSI M7-A7 broth microdilution method
Proteus mirabilis [30] = test: Antibacterial activity against ceftazidime-susceptible Proteus mirabilis assessed as susceptible isolates by CLSI M7-A7 broth microdilution method
Citrobacter freundii [31] = test: Antibacterial activity against ceftazidime-susceptible Citrobacter freundii assessed as resistant isolates by CLSI M7-A7 broth microdilution method
Haemophilus influenzae [32] = test: Antibacterial activity against beta lactamase-positive Haemophilus influenzae assessed as resistant isolates by CLSI M7-A7 broth microdilution method
Escherichia coli [33] = test: Antibacterial activity against ceftazidime-nonsusceptible Escherichia coli by CLSI M7-A7 broth microdilution method
Serratia marcescens [34] = test: Antibacterial activity against ceftazidime-susceptible Serratia marcescens by CLSI M7-A7 broth microdilution method
Haemophilus influenzae [35] = test: Antibacterial activity against beta lactamase-negative Haemophilus influenzae assessed as susceptible isolates by CLSI M7-A7 broth microdilution method
Citrobacter freundii [36] = test: Antibacterial activity against ceftazidime-nonsusceptible Citrobacter freundii by CLSI M7-A7 broth microdilution method
Enterobacter cloacae [37] = test: Antibacterial activity against ceftazidime-nonsusceptible Enterobacter cloacae assessed as resistant isolates by CLSI M7-A7 broth microdilution method
Providencia sp. [38] = test: Antibacterial activity against ceftazidime-susceptible Providencia sp. assessed as resistant isolates by CLSI M7-A7 broth microdilution method
Haemophilus influenzae [39] = test: Antibacterial activity against beta lactamase-positive Haemophilus influenzae by CLSI M7-A7 broth microdilution method
Citrobacter freundii [40] = test: Antibacterial activity against ceftazidime-nonsusceptible Citrobacter freundii assessed as resistant isolates by CLSI M7-A7 broth microdilution method
Acinetobacter [41] = test: Antibacterial activity against multidrug-resistant Acinetobacter by CLSI M7-A7 broth microdilution method
Enterobacteriaceae [42] = test: Antibacterial activity against ceftazidime-nonsusceptible Enterobacteriaceae assessed as susceptible isolates by CLSI M7-A7 broth microdilution method
Enterobacteriaceae [43] = test: Antibacterial activity against ceftazidime-susceptible Enterobacteriaceae by CLSI M7-A7 broth microdilution method
Klebsiella pneumoniae [44] = test: Antibacterial activity against ceftazidime-nonsusceptible Klebsiella pneumoniae assessed as resistant isolates by CLSI M7-A7 broth microdilution method
Morganella morganii [45] = test: Antibacterial activity against ceftazidime-susceptible Morganella morganii assessed as resistant isolates by CLSI M7-A7 broth microdilution method
Enterobacter cloacae [46] = test: Antibacterial activity against ceftazidime-susceptible Enterobacter cloacae assessed as susceptible isolates by CLSI M7-A7 broth microdilution method
Proteus mirabilis [47] = test: Antibacterial activity against ceftazidime-susceptible Proteus mirabilis by CLSI M7-A7 broth microdilution method
Serratia marcescens [48] = test: Antibacterial activity against ceftazidime-susceptible Serratia marcescens assessed as susceptible isolates by CLSI M7-A7 broth microdilution method
Escherichia coli [49] = test: Antibacterial activity against ceftazidime-nonsusceptible Escherichia coli assessed as resistant isolates by CLSI M7-A7 broth microdilution method
Morganella morganii [50] = test: Antibacterial activity against ceftazidime-susceptible Morganella morganii by CLSI M7-A7 broth microdilution method

**Q.** CC1(C)S[C@@H]2[C@H](NC(=O)[C@H](N)c3ccccc3)C(=O)N2[C@H]1C(=O)O [AMPICILLIN] was tested. Which MIC50 (Escherichia coli [1]) did it give?
**A.** 4 µg/mL (≈ 11.4 µM)

**Q.** What about the MIC90 (Escherichia coli [1]) of the same compound?
**A.** > 32 µg/mL

**Q.** And the Activity (Serratia marcescens [2])?
**A.** 83.1%

**Q.** What about the MIC50 (Citrobacter freundii [3]) of the same compound?
**A.** 16 µg/mL (≈ 45.8 µM)

**Q.** And the MIC90 (Citrobacter freundii [3])?
**A.** > 32 µg/mL

**Q.** What about the Activity (Enterobacteriaceae [4]) of the same compound?
**A.** 35.2%

**Q.** What about the MIC50 (Klebsiella pneumoniae [5]) of the same compound?
**A.** > 32 µg/mL

**Q.** And the MIC90 (Klebsiella pneumoniae [5])?
**A.** > 32 µg/mL

**Q.** What about the Activity (Haemophilus influenzae [6]) of the same compound?
**A.** 1%

**Q.** What about the Activity (Proteus mirabilis [7]) of the same compound?
**A.** 27.6%

**Q.** What about the Activity (Enterobacteriaceae [8]) of the same compound?
**A.** 100%

**Q.** And the Activity (Escherichia coli [9])?
**A.** 0%

**Q.** And the Activity (Morganella morganii [10])?
**A.** 8.8%

**Q.** And the Activity (Klebsiella pneumoniae [11])?
**A.** 5.2%

**Q.** And the Activity (Enterobacter cloacae [12])?
**A.** 66%

**Q.** And the MIC (Enterobacteriaceae [13])?
**A.** > 32 µg/mL

**Q.** What about the MIC50 (Enterobacteriaceae [13]) of the same compound?
**A.** > 32 µg/mL

**Q.** What about the MIC90 (Enterobacteriaceae [13]) of the same compound?
**A.** > 32 µg/mL

**Q.** And the MIC50 (Acinetobacter [14])?
**A.** 16 µg/mL (≈ 45.8 µM)

**Q.** What about the MIC90 (Acinetobacter [14]) of the same compound?
**A.** > 32 µg/mL

**Q.** What about the MIC (Haemophilus influenzae [15]) of the same compound?
**A.** ≤ 0.25 µg/mL

**Q.** What about the MIC50 (Haemophilus influenzae [15]) of the same compound?
**A.** ≤ 0.25 µg/mL

**Q.** And the MIC90 (Haemophilus influenzae [15])?
**A.** 0.5 µg/mL (≈ 1.43 µM)

**Q.** What about the Activity (Klebsiella pneumoniae [16]) of the same compound?
**A.** 0%

**Q.** What about the Activity (Escherichia coli [17]) of the same compound?
**A.** 40.9%

**Q.** What about the MIC (Klebsiella pneumoniae [18]) of the same compound?
**A.** > 32 µg/mL

**Q.** And the MIC50 (Klebsiella pneumoniae [18])?
**A.** > 32 µg/mL

**Q.** And the MIC90 (Klebsiella pneumoniae [18])?
**A.** > 32 µg/mL

**Q.** And the MIC50 (Providencia sp. [19])?
**A.** 32 µg/mL (≈ 91.6 µM)

**Q.** And the MIC90 (Providencia sp. [19])?
**A.** > 32 µg/mL

**Q.** What about the Activity (Enterobacteriaceae [20]) of the same compound?
**A.** 57%

**Q.** What about the Activity (Haemophilus influenzae [21]) of the same compound?
**A.** 2%

**Q.** What about the Activity (Citrobacter freundii [22]) of the same compound?
**A.** 0%

**Q.** And the MIC (Enterobacter cloacae [23])?
**A.** > 32 µg/mL

**Q.** And the MIC50 (Enterobacter cloacae [23])?
**A.** > 32 µg/mL

**Q.** What about the MIC90 (Enterobacter cloacae [23]) of the same compound?
**A.** > 16 µg/mL

**Q.** And the Activity (Providencia sp. [24])?
**A.** 22.2%

**Q.** And the Activity (Klebsiella pneumoniae [25])?
**A.** 80%

**Q.** What about the MIC50 (Enterobacter cloacae [26]) of the same compound?
**A.** 32 µg/mL (≈ 91.6 µM)

**Q.** What about the MIC90 (Enterobacter cloacae [26]) of the same compound?
**A.** > 32 µg/mL

**Q.** What about the Activity (Citrobacter freundii [27]) of the same compound?
**A.** 36%

**Q.** And the Activity (Enterobacter cloacae [28])?
**A.** 0%

**Q.** And the Activity (Escherichia coli [29])?
**A.** 58.3%

**Q.** What about the Activity (Proteus mirabilis [30]) of the same compound?
**A.** 72.4%

**Q.** What about the Activity (Citrobacter freundii [31]) of the same compound?
**A.** 42%

**Q.** What about the Activity (Haemophilus influenzae [32]) of the same compound?
**A.** 97%

**Q.** And the MIC (Escherichia coli [33])?
**A.** > 32 µg/mL

**Q.** And the MIC50 (Escherichia coli [33])?
**A.** > 32 µg/mL

**Q.** What about the MIC90 (Escherichia coli [33]) of the same compound?
**A.** > 32 µg/mL

**Q.** And the MIC50 (Serratia marcescens [34])?
**A.** > 32 µg/mL

**Q.** What about the MIC90 (Serratia marcescens [34]) of the same compound?
**A.** > 32 µg/mL

**Q.** What about the Activity (Haemophilus influenzae [35]) of the same compound?
**A.** 99%

**Q.** And the MIC (Citrobacter freundii [36])?
**A.** > 32 µg/mL

**Q.** What about the MIC50 (Citrobacter freundii [36]) of the same compound?
**A.** > 32 µg/mL

**Q.** And the MIC90 (Citrobacter freundii [36])?
**A.** > 32 µg/mL

**Q.** And the Activity (Enterobacter cloacae [37])?
**A.** 100%

**Q.** And the Activity (Providencia sp. [38])?
**A.** 66.7%

**Q.** And the MIC50 (Haemophilus influenzae [39])?
**A.** 32 µg/mL (≈ 91.6 µM)

**Q.** What about the MIC90 (Haemophilus influenzae [39]) of the same compound?
**A.** > 32 µg/mL

**Q.** And the Activity (Citrobacter freundii [40])?
**A.** 100%

**Q.** What about the MIC (Acinetobacter [41]) of the same compound?
**A.** > 32 µg/mL

**Q.** What about the MIC50 (Acinetobacter [41]) of the same compound?
**A.** > 32 µg/mL

**Q.** What about the Activity (Enterobacteriaceae [42]) of the same compound?
**A.** 0%

**Q.** And the MIC50 (Enterobacteriaceae [43])?
**A.** 32 µg/mL (≈ 91.6 µM)

**Q.** And the MIC90 (Enterobacteriaceae [43])?
**A.** > 32 µg/mL

**Q.** What about the Activity (Klebsiella pneumoniae [44]) of the same compound?
**A.** 100%

**Q.** And the Activity (Morganella morganii [45])?
**A.** 85.3%

**Q.** What about the Activity (Enterobacter cloacae [46]) of the same compound?
**A.** 20%

**Q.** And the MIC50 (Proteus mirabilis [47])?
**A.** 1 µg/mL (≈ 2.86 µM)

**Q.** What about the MIC90 (Proteus mirabilis [47]) of the same compound?
**A.** > 32 µg/mL

**Q.** What about the Activity (Serratia marcescens [48]) of the same compound?
**A.** 3.4%

**Q.** And the Activity (Escherichia coli [49])?
**A.** 100%

**Q.** And the MIC50 (Morganella morganii [50])?
**A.** > 32 µg/mL

**Q.** And the MIC90 (Morganella morganii [50])?
**A.** > 32 µg/mL
